Source: PubChem BioAssay (NCI)
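Five concentrations, 48 hours, 96-well plates. TGI: total growth inhibition.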

Legend:
Test in all cases: NCI tumour cell line growth inhibition, 48 h
786-0 renal = test system: 786-0 renal
UO-31 renal = test system: UO-31 renal
RPMI-8226 leukemia = test system: RPMI-8226 leukemia
CAKI-1 renal = test system: CAKI-1 renal
HOP-62 NSCLC = test system: HOP-62 NSCLC
SF-268 CNS = test system: SF-268 CNS
SF-539 CNS = test system: SF-539 CNS
SK-MEL-5 melanoma = test system: SK-MEL-5 melanoma
RXF 393 renal = test system: RXF 393 renal
NCI-H522 lung = test system: NCI-H522 lung
UACC-257 melanoma = test system: UACC-257 melanoma
DU-145 prostate = test system: DU-145 prostate
TK-10 renal = test system: TK-10 renal
OVCAR-8 ovarian = test system: OVCAR-8 ovarian
T-47D breast = test system: T-47D breast
COLO 205 colon = test system: COLO 205 colon
CCRF-CEM leukemia = test system: CCRF-CEM leukemia
OVCAR-5 ovarian = test system: OVCAR-5 ovarian
A549 NSCLC = test system: A549 NSCLC

SMILES | TGI (786-0 renal) [µM] | TGI (UO-31 renal) [µM] | TGI (RPMI-8226 leukemia) [µM] | TGI (CAKI-1 renal) [µM] | TGI (HOP-62 NSCLC) [µM] | TGI (SF-268 CNS) [µM] | TGI (SF-539 CNS) [µM] | TGI (SK-MEL-5 melanoma) [µM] | TGI (RXF 393 renal) [µM] | TGI (NCI-H522 lung) [µM] | TGI (UACC-257 melanoma) [µM] | TGI (DU-145 prostate) [µM] | TGI (TK-10 renal) [µM] | TGI (OVCAR-8 ovarian) [µM] | TGI (T-47D breast) [µM] | TGI (COLO 205 colon) [µM] | TGI (CCRF-CEM leukemia) [µM] | TGI (OVCAR-5 ovarian) [µM] | TGI (A549 NSCLC) [µM]
CC(=O)Oc1c2ccsc2c(OC(C)=O)c2ccsc12 | 5.2 | 2.57 | > 28 | 3.66 | 4.4 | 5.81 | 0.913 | 0.31 | 0.501 | 1.15 | 0.4 | 0.833 | 4.2 | 1.22 | 4.09 | 3.38 | > 21.4 |  | 
O=C1CCC2c3ccccc3NCN12 (stereo not drawn) | > 100 | > 100 | > 100 | > 100 | > 100 | > 100 | > 100 | > 100 | > 100 | > 100 | > 100 | > 100 | > 100 | > 100 | > 100 | > 100 | > 100 | > 100 | > 100
COc1cc2cc3c4c(cc(OC)c(OC)c4c2cc1OC)CCN3C | > 50 | 40.6 | 12.9 | 25.7 | > 50 | > 50 | 40.5 | 16.6 | 12.3 | 23.9 | 27.3 | 19.8 | > 23.4 | > 50 | 4.1 | 39.6 | 7.27 | 49 | > 50
CC(C)OC(=O)[C@H]1ON2O[C@H](O[C@@H]3CCCC[C@H]3c3ccccc3)C([Si](C)(C)c3ccccc3)[C@H]3OC(=O)[C@@H]1C32 (stereo partly drawn) | > 100 | > 100 | > 100 | > 100 | > 100 | > 100 | > 100 | > 100 | > 100 | > 100 | > 100 | > 100 | > 100 | > 100 | > 100 | > 100 | > 100 |  | > 100
CN(C)CCCNC(=O)c1cc(NS(=O)(=O)c2ccc3c(c2)C(=O)c2ccccc2C3=O)cn1C | 77.3 | > 100 | 53.2 | > 100 | > 100 | 72.5 | 75.6 | 37.4 | 57.4 | 52.5 | 37.6 | 76.3 | 51.3 | > 100 | > 100 | > 100 | > 100 | > 100 | > 100
O=C1OCC(c2ccc(Cl)cc2)=C1Cl | 40.6 | 33.9 | 86.2 | 88.4 | 56 | 70 | > 100 | 31.5 | 54.1 | 35.9 | > 100 | > 100 | 60.6 | 73.6 | > 100 | 70.4 | 75.6 | 44.4 | > 100
COC(=O)c1c(C)c2c(c(C)c1C(=O)OC)-c1c(C)ccc3ccc(C)c-2c13 | > 100 | > 100 | > 100 | > 100 | > 100 | > 100 | > 100 | 95.8 | > 100 | > 100 | > 100 | > 100 | > 100 | > 100 | > 95.7 | > 100 | > 100 | > 100 | > 100
Cc1ccc(S(=O)(=O)N/N=C2\CCCCCCCCCCC2CN(C)C)cc1 (stereo not drawn) | 29.9 | 21 | > 100 | 50.4 | 33.8 | 54.3 | 31.6 | 24 | 26.6 | 27.4 | 28.7 | 34.8 | 27.6 | 30.7 | 30.2 | 31.9 | 37.2 | 30.9 | 41
COC(=O)c1cc(O)c(O)c(O)c1-c1c(O)c(O)c(O)c(SC[C@H](NC(=O)OCc2ccccc2)C(=O)OCc2ccccc2)c1C(=O)OC | 49.6 |  | 81.7 | 35.2 | > 100 | > 100 | 73 |  | > 100 | 59.3 | > 100 | > 100 | > 100 | 52.7 | > 100 | 48.4 | > 100 | > 100 | 36.3
CCOC(=O)CCC(NC(=O)c1ccc(Oc2nc3c(N)cc(C(F)(F)F)cc3nc2-c2ccccc2)cc1)C(=O)OCC (stereo not drawn) | > 22 | > 100 | > 100 | 8.91 | 28.5 | > 71.2 | 8.48 | > 100 | 47.7 | 45.4 | > 31.6 | > 64.8 | > 100 | > 80.7 | > 100 | > 100 | > 100 | > 100 | > 100
COC(=O)c1ccc(C)cc1CC1Cc2cccc(C)c2C1=O (stereo not drawn) | > 100 | 56.7 |  | > 100 | > 100 | > 100 | 17.6 | 11.4 | 30.2 | 6.57 | 47.9 | > 100 | 48.6 | 33.5 | 57.9 | 30.7 | 51.3 | > 100 | > 100
OCCCCn1cc(Cn2ncc3c(NCc4ccccc4)ncnc32)nn1 | > 100 | > 100 | > 100 | > 100 | > 100 | > 100 | > 100 | > 100 | > 100 | > 100 | > 100 | > 100 | > 100 | > 100 | > 100 | > 100 | > 100 | > 100 | > 100
CCS(=O)c1c2cc(OC)ccc2nc2ccc(OC)cc12 (stereo not drawn) | 6.42 | 13.1 | 16.5 | 9.44 | 51.1 | > 62 | > 59 | 30.3 | 17.2 | 3.97 | 12 | 6.49 | 10.3 | 15.5 | 5.85 | 15.4 | > 25.6 | 41.7 | 51.1
CCOC(=O)c1c(N2CCCC2)[nH]c(=O)c(C(c2ccc(Cl)c([N+](=O)[O-])c2)c2c(O)c(C(=O)OCC)c(N3CCCC3)[nH]c2=O)c1O | > 100 | 66.6 | > 100 | 60.6 | > 100 | 55.2 | 41.6 | > 100 | 99.6 | 74.1 | > 100 | > 100 | 59.2 | 33.5 | > 100 | > 100 | 79.3 | > 100 | > 100
O=[N+]([O-])c1ccc2sc(/C=N/c3ccccn3)cc2c1 | > 100 | > 100 | 88.9 | > 100 | > 100 | 94 | > 100 | > 100 | > 100 | > 100 | > 100 | > 100 | > 100 | > 100 | 74 | > 100 | > 100 | > 100 | > 100
CCc1c(CNC2=NCCN2)c(CC)c(CNC2=NCCN2)c(CC)c1CNC1=NCCN1 | > 100 | > 100 | > 100 | > 100 | > 100 | > 100 | > 100 | > 100 | > 100 | > 100 | > 100 | > 100 | > 100 | > 100 | > 100 | > 100 | > 100 | > 100 | > 100
COc1ccc(CNc2nc(NCc3ccc(OC)cc3)nc(NC3CCCC3)n2)cc1 | > 68.5 | > 91.1 | > 30.4 | > 84.1 | > 100 | > 100 | 11.4 | 14 | 3.61 | > 19.9 | > 100 | > 40.7 | > 26.1 | 20 | > 100 | > 25.1 | > 100 | > 44.7 | > 67.7
Cc1ccc(S(=O)(=O)N/N=C2\CCC3(O)CC2(C)CCC2C3CC2(C)C)cc1 (stereo not drawn) | > 100 | 80.3 | > 100 | > 100 | > 100 | > 100 | > 100 | > 100 | > 100 | 52.9 | > 100 | > 100 | 75.8 | > 100 | > 100 | 46.5 | > 100 | > 100 | > 100
O=C(CSCC(=O)N/N=C\c1ccc(O)c(O)c1O)N/N=C\c1ccc(O)c(O)c1O | 4.56 | 34.7 | 6.86 | 37.1 |  | > 100 | 37.9 | 36.3 | > 100 | 44.4 | 50 | 29.1 | 42 | > 100 | 76.1 | > 100 | 4.75 |  | 53.7
